The text below walks through data of patent publication US8551984B2, “Aminopyrimidines as SYK inhibitors” (Merck Sharp & Dohme Corp., priority 2009, dated 2013).

Structures are written as SMILES. Where only a bound is given, the exact number is not on record here.

This assay deals with recombinant human SYK (GST-hSYK fusion protein) (Homo sapiens, UniProt P43405). Kind of assay: biochemical. Conditions: rhSYK Activity, Table 54D.
Description: Homogeneous Time-Resolved Fluorescence (HTRF) Assay for the Recombinant Human SYK Enzyme:
Consider `Cc1cc(Nc2nccc(C(F)(F)F)n2)cc(-c2cnc(C3(O)CCCN(C(=O)CCC#N)CC3)s2)c1` (stereo not drawn) [Example 54D-16], for which the IC50 is < 100 nM.
For `Cc1cc(Nc2nccc(C(C)C)n2)cc(-c2cnc(C3(O)CCCN(C(=O)Cn4cnnn4)CC3)s2)c1` (stereo not drawn) [Example 54D-19] the value was < 100 nM; for `Cc1cc(Nc2nccc(C(F)(F)F)n2)cc(-c2cnc(C3(O)CCCN(C(=O)CC(N)=O)CC3)s2)c1` (stereo not drawn) [Example 54D-22], < 100 nM; for `Cc1cc(Nc2nccc(C(F)(F)F)n2)cc(-c2cnc(C3(O)CCCN(C(=O)CC(C)O)CC3)s2)c1` (stereo not drawn) [Example 54D-23], < 100 nM.
For `Cc1cc(Nc2nccc(C(F)(F)F)n2)cc(-c2cnc(C3(O)CCCN(C(=O)CC(=O)O)CC3)s2)c1` (stereo not drawn) [Example 54D-24] the value was < 100 nM; for `Cc1cc(Nc2nccc(C(F)(F)F)n2)cc(-c2cnc(C3(O)CCCN(C(=O)C(O)CO)CC3)s2)c1` (stereo not drawn) [Example 54D-27], < 100 nM; for `CCOC(=O)CC(=O)N1CCCC(O)(c2ncc(-c3cc(C)cc(Nc4nccc(C(C)C)n4)c3)s2)CC1` (stereo not drawn) [Example 54D-30], < 100 nM.
With `Cc1cc(Nc2nccc(C(C)C)n2)cc(-c2cnc(C3(O)CCCN(C(=O)C(C)(CO)CO)CC3)s2)c1` (stereo not drawn) [Example 54D-31], the IC50 was < 100 nM.
The value for `Cc1cc(Nc2nccc(C(F)(F)F)n2)cc(-c2cnc(C3(O)CCCN(C(=O)c4ncc[nH]4)CC3)s2)c1` (stereo not drawn) [Example 54D-34] was < 100 nM; that for `Cc1cc(Nc2nccc(C(F)(F)F)n2)cc(-c2cnc(C3(O)CCCN(C(=O)C4CCCO4)CC3)s2)c1` (stereo not drawn) [Example 54D-40] was < 100 nM.
As for `Cc1cc(Nc2nccc(C(F)(F)F)n2)cc(-c2cnc(C3(O)CCCN(C(=O)CCC(=O)O)CC3)s2)c1` (stereo not drawn) [Example 54D-43], the IC50 was < 100 nM.
The value for `Cc1cc(Nc2nccc(C(F)(F)F)n2)cc(-c2cnc(C3(O)CCCN(C(=O)CC(C)(C)O)CC3)s2)c1` (stereo not drawn) [Example 54D-44] was < 100 nM.
For `Cc1cc(Nc2nccc(C(F)(F)F)n2)cc(-c2cnc(C3(O)CCCN(C(=O)c4ccccc4)CC3)s2)c1` (stereo not drawn) [Example 54D-45] the value was < 100 nM.
`Cc1cc(Nc2nccc(C(F)(F)F)n2)cc(-c2cnc(C3(O)CCCN(C(=O)Cn4ccnc4)CC3)s2)c1` (stereo not drawn) [Example 54D-46]: the IC50 was < 100 nM.
The value for `Cc1cc(Nc2nccc(C(F)(F)F)n2)cc(-c2cnc(C3(O)CCCN(C(=O)Cc4c[nH]cn4)CC3)s2)c1` (stereo not drawn) [Example 54D-47] was < 100 nM.
For `Cc1cc(Nc2nccc(C(F)(F)F)n2)cc(-c2cnc(C3(O)CCCN(C(=O)c4cc(C)on4)CC3)s2)c1` (stereo not drawn) [Example 54D-48] the value was < 100 nM; for `Cc1cc(Nc2nccc(C(F)(F)F)n2)cc(-c2cnc(C3(O)CCCN(C(=O)Cn4cncn4)CC3)s2)c1` (stereo not drawn) [Example 54D-49], < 100 nM; for `Cc1cc(Nc2nccc(C(F)(F)F)n2)cc(-c2cnc(C3(O)CCCN(C(=O)CC(F)(F)F)CC3)s2)c1` (stereo not drawn) [Example 54D-54], < 100 nM.
For `Cc1cc(Nc2nccc(C(F)(F)F)n2)cc(-c2cnc(C3(O)CCCN(C(=O)c4nnnn4C)CC3)s2)c1` (stereo not drawn) [Example 54D-55] the value was < 100 nM.
For the compound `Cc1cc(Nc2nccc(C(F)(F)F)n2)cc(-c2cnc(C3(O)CCCN(C(=O)Cn4cnnn4)CC3)s2)c1` (stereo not drawn) [Example 54D-56], the IC50 was < 100 nM.
For `Cc1cc(Nc2nccc(C(F)(F)F)n2)cc(-c2cnc(C3(O)CCCN(C(=O)C4CCC(=O)N4)CC3)s2)c1` (stereo not drawn) [Example 54D-61] the value was < 100 nM.
For `Cc1cc(Nc2nccc(C(F)(F)F)n2)cc(-c2cnc(C3(O)CCCN(C(=O)c4n[nH]c(=O)[nH]4)CC3)s2)c1` (stereo not drawn) [Example 54D-62] the value was < 100 nM; for `Cc1cc(Nc2nccc(C(F)(F)F)n2)cc(-c2cnc(C3(O)CCCN(C(=O)C4CNC(=O)N4)CC3)s2)c1` (stereo not drawn) [Example 54D-64], < 100 nM.
The value for `Cc1cc(Nc2nccc(C(F)(F)F)n2)cc(-c2cnc(C3(O)CCCN(C(=O)C4CCCCO4)CC3)s2)c1` (stereo not drawn) [Example 54D-65] was < 100 nM.
`Cc1cc(Nc2nccc(C(F)(F)F)n2)cc(-c2cnc(C3(O)CCCN(C(=O)C4CCC(=O)O4)CC3)s2)c1` (stereo not drawn) [Example 54D-66]: the IC50 was < 100 nM.
Regarding `Cc1cc(Nc2nccc(C(F)(F)F)n2)cc(-c2cnc(C3(O)CCCN(C(=O)CC4CCOC4)CC3)s2)c1` (stereo not drawn) [Example 54D-67], the IC50 is < 100 nM.
For `Cc1cc(Nc2nccc(C(F)(F)F)n2)cc(-c2cnc(C3(O)CCCN(C(=O)C4CCCOC4)CC3)s2)c1` (stereo not drawn) [Example 54D-68] the value was < 100 nM; for `Cc1cc(Nc2nccc(C(F)(F)F)n2)cc(-c2cnc(C3(O)CCCN(C(=O)C4(C(=O)O)CC4)CC3)s2)c1` (stereo not drawn) [Example 54D-70], < 100 nM; for `Cc1cc(Nc2nccc(C(F)(F)F)n2)cc(-c2cnc(C3(O)CCCN(C(=O)C4CC4C(=O)O)CC3)s2)c1` (stereo not drawn) [Example 54D-71], < 100 nM.
The value for `COC(=O)CCC(=O)N1CCCC(O)(c2ncc(-c3cc(C)cc(Nc4nccc(C(F)(F)F)n4)c3)s2)CC1` (stereo not drawn) [Example 54D-72] was < 100 nM; that for `CCOC(=O)CC(=O)N1CCCC(O)(c2ncc(-c3cc(C)cc(Nc4nccc(C(F)(F)F)n4)c3)s2)CC1` (stereo not drawn) [Example 54D-73] was < 100 nM; that for `Cc1cc(Nc2nccc(C(F)(F)F)n2)cc(-c2cnc(C3(O)CCCN(C(=O)CCNC(N)=O)CC3)s2)c1` (stereo not drawn) [Example 54D-76] was < 100 nM.
The value for `Cc1cc(Nc2nccc(C(F)(F)F)n2)cc(-c2cnc(C3(O)CCCN(C(=O)C(O)C(C)(C)O)CC3)s2)c1` (stereo not drawn) [Example 54D-77] was < 100 nM.
As to `Cc1cc(Nc2nccc(C(F)(F)F)n2)cc(-c2cnc(C3(O)CCCN(C(=O)C(C)(CO)CO)CC3)s2)c1` (stereo not drawn) [Example 54D-78], the IC50 was < 100 nM.
For `Cc1cc(Nc2nccc(C(F)(F)F)n2)cc(-c2cnc(C3(O)CCCN(C(=O)Cc4cccnc4)CC3)s2)c1` (stereo not drawn) [Example 54D-81] the value was < 100 nM.
The value for `Cc1cc(Nc2nccc(C(F)(F)F)n2)cc(-c2cnc(C3(O)CCCN(C(=O)Cc4ccccn4)CC3)s2)c1` (stereo not drawn) [Example 54D-82] was < 100 nM; that for `Cc1cc(Nc2nccc(C(F)(F)F)n2)cc(-c2cnc(C3(O)CCCN(C(=O)CS(C)(=O)=O)CC3)s2)c1` (stereo not drawn) [Example 54D-83] was < 100 nM.
For the compound `Cc1cc(Nc2nccc(C(F)(F)F)n2)cc(-c2cnc(C3(O)CCCN(C(=O)c4ccc(O)cc4)CC3)s2)c1` (stereo not drawn) [Example 54D-84], the IC50 is < 100 nM.
On to `Cc1cc(Nc2nccc(C(F)(F)F)n2)cc(-c2cnc(C3(O)CCCN(C(=O)c4ccc(O)cn4)CC3)s2)c1` (stereo not drawn) [Example 54D-85], for which the IC50 is < 100 nM.
For the compound `Cc1cc(Nc2nccc(C(F)(F)F)n2)cc(-c2cnc(C3(O)CCCN(C(=O)c4cccc(O)n4)CC3)s2)c1` (stereo not drawn) [Example 54D-86], the IC50 is < 100 nM.
The value for `Cc1cc(Nc2nccc(C(F)(F)F)n2)cc(-c2cnc(C3(O)CCCN(C(=O)c4cc(O)ccn4)CC3)s2)c1` (stereo not drawn) [Example 54D-87] was < 100 nM; that for `Cc1cc(Nc2nccc(C(F)(F)F)n2)cc(-c2cnc(C3(O)CCCN(C(=O)CCc4cn[nH]c4)CC3)s2)c1` (stereo not drawn) [Example 54D-88] was < 100 nM.
`Cc1cc(Nc2nccc(C(F)(F)F)n2)cc(-c2cnc(C3(O)CCCN(C(=O)CCC(F)(F)F)CC3)s2)c1` (stereo not drawn) [Example 54D-90]: the IC50 was < 100 nM.
For `Cc1cc(Nc2nccc(C(F)(F)F)n2)cc(-c2cnc(C3(O)CCCN(C(=O)CN4CCCC4=O)CC3)s2)c1` (stereo not drawn) [Example 54D-91] the value was < 100 nM; for `Cc1cc(Nc2nccc(C(F)(F)F)n2)cc(-c2cnc(C3(O)CCCN(C(=O)C4CCCC(=O)N4)CC3)s2)c1` (stereo not drawn) [Example 54D-92], < 100 nM; for `Cc1cc(Nc2nccc(C(F)(F)F)n2)cc(-c2cnc(C3(O)CCCN(C(=O)Cc4n[nH]c(=O)[nH]4)CC3)s2)c1` (stereo not drawn) [Example 54D-93], < 100 nM.
For `COC(=O)C1(C(=O)N2CCCC(O)(c3ncc(-c4cc(C)cc(Nc5nccc(C(F)(F)F)n5)c4)s3)CC2)CC1` (stereo not drawn) [Example 54D-95] the value was < 100 nM.
With `Cc1cc(Nc2nccc(C(F)(F)F)n2)cc(-c2cnc(C3(O)CCCN(C(=O)CC4CCOCC4)CC3)s2)c1` (stereo not drawn) [Example 54D-96], the IC50 was < 100 nM.
For `Cc1cc(Nc2nccc(C(F)(F)F)n2)cc(-c2cnc(C3(O)CCCN(C(=O)C(O)C(F)(F)F)CC3)s2)c1` (stereo not drawn) [Example 54D-97], the IC50 is < 100 nM.
For `Cc1cc(Nc2nccc(C(F)(F)F)n2)cc(-c2cnc(C3(O)CCCN(C(=O)CCC(=O)N(C)C)CC3)s2)c1` (stereo not drawn) [Example 54D-98] the value was < 100 nM; for `C#Cc1ccc(C(=O)N2CCCC(O)(c3ncc(-c4cc(C)cc(Nc5nccc(C(F)(F)F)n5)c4)s3)CC2)cc1` (stereo not drawn) [Example 54D-99], < 100 nM.
For `CCC(CO)(CO)C(=O)N1CCCC(O)(c2ncc(-c3cc(C)cc(Nc4nccc(C(F)(F)F)n4)c3)s2)CC1` (stereo not drawn) [Example 54D-102] the value was < 100 nM; for `Cc1cc(Nc2nccc(C(F)(F)F)n2)cc(-c2cnc(C3(O)CCCN(C(=O)c4cc(O)ccc4F)CC3)s2)c1` (stereo not drawn) [Example 54D-104], < 100 nM.
For `Cc1cc(Nc2nccc(C(F)(F)F)n2)cc(-c2cnc(C3(O)CCCN(C(=O)c4ccnc(Cl)n4)CC3)s2)c1` (stereo not drawn) [Example 54D-105] the value was < 100 nM.
Regarding `CC(=O)Oc1ccc(C(=O)N2CCCC(O)(c3ncc(-c4cc(C)cc(Nc5nccc(C(F)(F)F)n5)c4)s3)CC2)cc1` (stereo not drawn) [Example 54D-106], the IC50 was < 100 nM.
The value for `COC(=O)C1CCC(C(=O)N2CCCC(O)(c3ncc(-c4cc(C)cc(Nc5nccc(C(F)(F)F)n5)c4)s3)CC2)CC1` (stereo not drawn) [Example 54D-111] was < 100 nM; that for `COC(=O)C(O)(CC(=O)N1CCCC(O)(c2ncc(-c3cc(C)cc(Nc4nccc(C(F)(F)F)n4)c3)s2)CC1)C(F)(F)F` (stereo not drawn) [Example 54D-112] was < 100 nM; that for `Cc1cc(Nc2nccc(C(F)(F)F)n2)cc(-c2cnc(C3(O)CCCN(S(=O)(=O)NC(=O)OC(C)(C)C)CC3)s2)c1` (stereo not drawn) [Example 54D-114] was < 100 nM.
The value for `Cc1cc(Nc2nccc(C(F)(F)F)n2)cc(-c2cnc(C3(O)CCCN(S(N)(=O)=O)CC3)s2)c1` (stereo not drawn) [Example 54D-115] was < 100 nM; that for `Cc1cc(Nc2nccc(C(F)(F)F)n2)cc(-c2cnc(C3(O)CCCN(S(=O)(=O)O)CC3)s2)c1` (stereo not drawn) [Example 54D-118] was < 100 nM.
